Reference: ChEMBL document CHEMBL1649554, “Specific therapeutic schemes of omeprazole affect the orientation of Helicobacter pylori” (Antimicrob Agents Chemother, 2009)
Activity calls are given as the source filed them. The rule behind the calls is not given here.

Assays:
Helicobacter pylori [1] = test: Antibacterial activity against Helicobacter pylori SS1 infected in Mongolian gerbils assessed as bacterial disorientation in 15 to 25 um above the Juxtamucosal layer at 0.25 mg, ip administered as two doses in 24 hrs dosing interval measured after 90 mins post last dose; format: functional, organism-based
Helicobacter pylori [2] = test: Antibacterial activity against Helicobacter pylori SS1 infected in Mongolian gerbils assessed as bacterial density in mucus in central mucus layer at 20 uM, ip administered as single dose through dialysis measured after 90 mins post last dose (reference value: 90+/-60 bacteria per nl of mucus); format: functional
Helicobacter pylori [3] = test: Antibacterial activity against Helicobacter pylori SS1 infected in Mongolian gerbils assessed as bacterial density in mucus in 0 to 15 um above the Juxtamucosal layer at 0.25 mg, ip followed by second dose administered as solvent in 24 hrs dosing interval measured after 90 mins post last dose (reference value: 4560+/-400 bacteria per nl of mucus); format: functional
Helicobacter pylori [4] = test: Antibacterial activity against Helicobacter pylori SS1 infected in Mongolian gerbils assessed as bacterial density in mucus in 15 to 25 um above the Juxtamucosal layer at 0.25 mg, ip followed by second dose administered as solvent in 24 hrs dosing interval measured after 90 mins post last dose (reference value: 2280+/-430 bacteria per nl of mucus); format: functional
Helicobacter pylori [5] = test: Antibacterial activity against Helicobacter pylori SS1 infected in Mongolian gerbils assessed as bacterial density in mucus in central mucus layer at 0.25 mg, ip followed by second dose administered as solvent in 24 hrs dosing interval measured after 90 mins post last dose (reference value: 90+/-60 bacteria per nl of mucus); format: functional
Helicobacter pylori [6] = test: Antibacterial activity against Helicobacter pylori SS1 infected in Mongolian gerbils assessed as bacterial density in mucus in central mucus layer at 100 uM, ip administered as single dose through dialysis measured after 90 mins post last dose; format: functional
Helicobacter pylori [7] = test: Antibacterial activity against Helicobacter pylori SS1 infected in Mongolian gerbils assessed as bacterial orientation in 0 to 15 um above the Juxtamucosal layer at 35 ug/ml administered as single dose in 8 hrs dosing interval; format: functional, organism-based
Helicobacter pylori [8] = test: Antibacterial activity against Helicobacter pylori SS1 infected in Mongolian gerbils assessed as bacterial disorientation in luminal mucus layer at 0.25 mg, ip administered as two doses in 24 hrs dosing interval measured after 90 mins post last dose; format: functional, organism-based
Helicobacter pylori [9] = test: Antibacterial activity against Helicobacter pylori SS1 infected in Mongolian gerbils assessed as bacterial disorientation in 15 to 25 um above the Juxtamucosal layer at 20 uM, ip administered as single dose through dialysis measured after 90 mins post last dose; format: functional, organism-based
Helicobacter pylori [10] = test: Antibacterial activity against Helicobacter pylori SS1 infected in Mongolian gerbils assessed as bacterial density in mucus in 0 to 15 um above the Juxtamucosal layer at 100 uM, ip administered as single dose through dialysis measured after 90 mins post last dose; format: functional
Helicobacter pylori [11] = test: Antibacterial activity against Helicobacter pylori SS1 infected in Mongolian gerbils assessed as bacterial disorientation in central mucus layer at 0.25 mg, ip followed by second dose administered as solvent in 24 hrs dosing interval measured after 90 mins post last dose; format: functional, organism-based
Helicobacter pylori [12] = test: Antibacterial activity against Helicobacter pylori SS1 infected in Mongolian gerbils assessed as bacterial disorientation in 0 to 15 um above the Juxtamucosal layer at 0.25 mg, ip administered as two doses of solvent measured after 90 mins post last dose (reference value: 4560+/-400 bacteria per nl of mucus); format: functional, organism-based
Helicobacter pylori [13] = test: Antibacterial activity against Helicobacter pylori SS1 infected in Mongolian gerbils assessed as bacterial density in mucus in 15 to 25 um above the Juxtamucosal layer at 0.25 mg, ip administered as two doses in 24 hrs dosing interval measured after 90 mins post last dose (reference value: 2280+/-430 bacteria per nl of mucus); format: functional
Helicobacter pylori [14] = test: Antibacterial activity against Helicobacter pylori SS1 infected in Mongolian gerbils assessed as bacterial disorientation in luminal mucus layer at 0.25 mg, ip followed by second dose administered as solvent in 24 hrs dosing interval measured after 90 mins post last dose; format: functional, organism-based
Helicobacter pylori [15] = test: Antibacterial activity against Helicobacter pylori SS1 infected in Mongolian gerbils assessed as bacterial density in mucus in luminal mucus layer at 20 uM, ip administered as single dose through dialysis measured after 90 mins post last dose (reference value: 60+/-50 bacteria per nl of mucus); format: functional
Helicobacter pylori [16] = test: Antibacterial activity against Helicobacter pylori SS1 infected in Mongolian gerbils assessed as bacterial density in mucus in 0 to 15 um above the Juxtamucosal layer at 0.25 mg, ip administered as two doses in 8 hrs dosing interval measured after 90 mins post last dose (reference value: 4560+/-400 bacteria per nl of mucus); format: functional
Helicobacter pylori [17] = test: Antibacterial activity against Helicobacter pylori SS1 infected in Mongolian gerbils assessed as bacterial density in mucus in luminal mucus layer at 0.25 mg, ip administered as two doses in 24 hrs dosing interval measured after 90 mins post last dose (reference value: 60+/-50 bacteria per nl of mucus); format: functional
Helicobacter pylori [18] = test: Antibacterial activity against Helicobacter pylori SS1 infected in Mongolian gerbils assessed as bacterial density in mucus in luminal mucus layer at 0.25 mg, ip followed by second dose administered as solvent in 24 hrs dosing interval measured after 90 mins post last dose (reference value: 60+/-50 bacteria per nl of mucus); format: functional
Helicobacter pylori [19] = test: Antibacterial activity against Helicobacter pylori SS1 infected in Mongolian gerbils assessed as bacterial orientation in central layer at 35 ug/ml administered as single dose in 8 hrs dosing interval; format: functional, organism-based
Helicobacter pylori [20] = test: Antibacterial activity against Helicobacter pylori SS1 infected in Mongolian gerbils assessed as bacterial density in mucus in 15 to 25 um above the Juxtamucosal layer at 0.25 mg, ip administered as two doses of solvent in 24 hrs dosing interval measured after 90 mins post last dose (reference value: 2280+/-430 bacteria per nl of mucus); format: functional
Helicobacter pylori [21] = test: Antibacterial activity against Helicobacter pylori SS1 infected in Mongolian gerbils assessed as bacterial disorientation in central mucus layer at 20 uM, ip administered as single dose through dialysis measured after 90 mins post last dose; format: functional, organism-based
Helicobacter pylori [22] = test: Antibacterial activity against Helicobacter pylori SS1 infected in Mongolian gerbils assessed as bacterial orientation in luminal mucus layer at 35 ug/ml administered as single dose in 8 hrs dosing interval; format: functional, organism-based
Helicobacter pylori [23] = test: Antibacterial activity against Helicobacter pylori SS1 infected in Mongolian gerbils assessed as bacterial disorientation in 15 to 25 um above the Juxtamucosal layer at 0.25 mg, ip administered as two doses in 8 hrs dosing interval measured after 90 mins post last dose; format: functional, organism-based
Helicobacter pylori [24] = test: Antibacterial activity against Helicobacter pylori SS1 infected in Mongolian gerbils assessed as bacterial density in mucus in 15 to 25 um above the Juxtamucosal layer at 0.25 mg, ip administered as two doses in 8 hrs dosing interval measured after 90 mins post last dose (reference value: 2280+/-430 bacteria per nl of mucus); format: functional
Helicobacter pylori [25] = test: Antibacterial activity against Helicobacter pylori SS1 infected in Mongolian gerbils assessed as bacterial density in mucus in central mucus layer at 0.25 mg, ip administered as two doses of solvent in 24 hrs dosing interval measured after 90 mins post last dose (reference value: 90+/-60 bacteria per nl of mucus); format: functional

With COc1ccc2[nH]c([S+]([O-])Cc3ncc(C)c(OC)c3C)nc2c1 (stereo not given) [OMEPRAZOLE] the Activity (Helicobacter pylori [1]) was “Active”, the Activity (Helicobacter pylori [2]) was 70 nL⁻¹ and the Activity (Helicobacter pylori [3]) was 4790 nL⁻¹. For the same compound, the Activity (Helicobacter pylori [4]) was 2030 nL⁻¹, the Activity (Helicobacter pylori [5]) was 140 nL⁻¹ and the Activity (Helicobacter pylori [6]) was 60 nL⁻¹. The Activity (Helicobacter pylori [7]) was “inactive”, the Activity (Helicobacter pylori [8]) was “inactive” and the Activity (Helicobacter pylori [9]) was “inactive”. For the same compound, the Activity (Helicobacter pylori [10]) was 570 nL⁻¹, the Activity (Helicobacter pylori [11]) was “inactive” and the Activity (Helicobacter pylori [12]) was “Active”. The Activity (Helicobacter pylori [13]) was 2230 nL⁻¹, the Activity (Helicobacter pylori [14]) was “inactive” and the Activity (Helicobacter pylori [15]) was 50 nL⁻¹. The Activity (Helicobacter pylori [16]) was 4170 nL⁻¹, the Activity (Helicobacter pylori [17]) was 120 nL⁻¹ and the Activity (Helicobacter pylori [18]) was 50 nL⁻¹. The Activity (Helicobacter pylori [19]) was “inactive”, the Activity (Helicobacter pylori [20]) was 2260 nL⁻¹ and the Activity (Helicobacter pylori [21]) was “inactive”. The Activity (Helicobacter pylori [22]) was “inactive”, the Activity (Helicobacter pylori [23]) was “inactive” and the Activity (Helicobacter pylori [24]) was 1800 nL⁻¹. It also gave an Activity (Helicobacter pylori [25]) of 40 nL⁻¹.
